# Data as given in patent US20150367004A1, “COMPOSITIONS AND METHODS OF DIAGNOSING OCULAR DISEASES” (MOLECULAR TARGETING TECHNOLOGIES, INC., priority 2012, published 2015).
# System: corneal surface after BAC-induced toxicity
# Assay: In vivo fluorescence imaging of the cornea after BAC-induced corneal toxicity, compared with lissamine green staining
# Set-up: species or system rat
# Conditions: 0.1% and 0.2% BAC twice daily for 7 days
# Procedure: Adult Wistar rats were given topical instillation of 0.2, 0.1 and 0.02% BAC in 0.9% balanced salt solution (BSS) twice daily for 7 days. External ocular examination was performed and lissamine green staining was used to evaluate the corneal damage prior to and after experiments. One hour after topical Zn-DPA 480 administration, convention light and fluorescence images were taken on animals.
# There was no remarkable change on the cornea after administration of BSS. Results are illustrated in FIG. 3.
compound,measurement,value
CN(C)c1ccc(C(=C2C=CC(=[N+](C)C)C=C2)c2c(O)c(S(=O)(=O)[O-])cc3cc(S(=O)(=O)[O-])ccc23)cc1.[Na+] [lissamine green],Corneal staining,positive lissamine green staining
